Experimental data taken from patent publication US11890291B2, “Aqueous composition with water insoluble vitamins” (Innova Agri Bio Park Private Limited, priority 2018, dated 2024).

How the values were obtained:
[1] = in vivo; conditions: Wistar, rat, po, 5 mg/kg
Method: Test substance (Vitamin D3 fortified aqueous composition) and standard drug cholecalciferol (Vitamin D3) was administered by oral route at the dose of 5 mg/kg body weight to Rats as shown in Table 8.
After oral administration of the test substance and the standard drug, 500 μL of blood sample was collected in EDTA containing tubes at different time intervals of 0, ½, 1, 2, 4, 8, 12, 24 and 48 hours.
The plasma was separated from blood samples for bioanalysis and pharmacokinetic profiling was performed using LC-MS/MS method for the quantification of vitamin D3 in Rat plasma.
The area under the plasma drug concentration-time curve (AUC) was calculated which reflects the actual body exposure to drug after administration of a dose of the drug.

[2] = Volume of distribution test; format: in vivo, Wistar rats; conditions: oral 5 mg/kg
Method: The volume of distribution (Vd) test was done to check the ability of Vitamin D3 nanogels/nanoparticles to distribute through different body fluid compartments. Apparent volume of distribution (Vd) was calculated by dividing the amount of the nanogel/nanoparticles and the standard drug administered on the plasma concentration as shown in Table 11.

Structure (SMILES): C=C1CC[C@H](O)C/C1=C/C=C1\CCC[C@]2(C)[C@@H]([C@H](C)CCCC(C)C)CC[C@@H]12 [Standard vitamin D3, cholecalciferol]
- AUC at 0 h [1]: 20 ng·h/mL
- AUC at 0.5 h [1]: 43.3 ng·h/mL
- AUC at 1 h [1]: 41.7 ng·h/mL
- AUC at 2 h [1]: 106 ng·h/mL
- AUC at 4 h [1]: 289 ng·h/mL
- AUC at 8 h [1]: 1180 ng·h/mL
- AUC at 12 h [1]: 3010 ng·h/mL
- AUC at 24 h [1]: 4060 ng·h/mL
- AUC at 48 h [1]: 2910 ng·h/mL
- AUC(0-t) [1]: 11700 ng·h/mL
- concentration at 0 h [1]: 1.66 ± 1.66 ng/mL
- concentration at 0.5 h [1]: 4.16 ± 2.17 ng/mL
- concentration at 1 h [1]: 3.7 ± 1.98 ng/mL
- concentration at 2 h [1]: 13.4 ± 4.87 ng/mL
- concentration at 4 h [1]: 68.8 ± 22.5 ng/mL
- concentration at 8 h [1]: 284 ± 82 ng/mL
- concentration at 12 h [1]: 767 ± 92.5 ng/mL
- concentration at 24 h [1]: 1040 ± 123 ng/mL
- concentration at 48 h [1]: 744 ± 33.6 ng/mL
- Volume of distribution (Vd) ([2]; 0 Hr): 333.3 ± 333.3 L/kg
- Volume of distribution (Vd) ([2]; 0.5 Hr): 548.8 ± 285.8 L/kg
- Volume of distribution (Vd) ([2]; 1 Hr): 632.7 ± 339.6 L/kg
- Volume of distribution (Vd) ([2]; 2 Hr): 465.9 ± 129.3 L/kg
- Volume of distribution (Vd) ([2]; 4 Hr): 96.22 ± 25.47 L/kg
- Volume of distribution (Vd) ([2]; 8 Hr): 20.25 ± 4.58 L/kg
- Volume of distribution (Vd) ([2]; 12 Hr): 6.73 ± 0.89 L/kg
- Volume of distribution (Vd) ([2]; 24 Hr): 4.98 ± 0.67 L/kg
- Volume of distribution (Vd) ([2]; 48 Hr): 6.74 ± 0.31 L/kg
